Targets include AKT2 (Homo sapiens, UniProt P31751); BMPR1A (Homo sapiens, UniProt P36894); CDK3 (Homo sapiens, UniProt Q00526); FGFR4 (Homo sapiens, UniProt P22455); FLT3(R834Q) (Homo sapiens, UniProt P36888, R834Q); MELK (Homo sapiens, UniProt Q14680); NEK6 (Homo sapiens, UniProt Q9HC98); PIK3CA(H1047L) (Homo sapiens, UniProt P42336, H1047L); PIM1 (Homo sapiens, UniProt P11309); PIM3 (Homo sapiens, UniProt Q86V86); PRKCD (Homo sapiens, UniProt Q05655); PRKX (Homo sapiens, UniProt P51817); RIPK1 (Homo sapiens, UniProt Q13546); SRMS (Homo sapiens, UniProt Q9H3Y6); TYRO3 (Homo sapiens, UniProt Q06418).

What all share (assay): biochemical
What all share (set-up): DiscoverX kinase panel, active-site competition binding (KINOMEscan type), percent of control at one concentration
Settings in all cases: competition binding, percent of control

The target of assay [1] is T1, ABL1(Y253F)-phosphorylated (Homo sapiens, UniProt P00519, Y253F).
T1 construct: phosphorylated

Assay [2] addresses T2, JAK3(JH1domain-catalytic) (Homo sapiens, UniProt P52333).
T2 construct: JH1domain-catalytic

Another assay deals with T3, MEK6 (Homo sapiens, UniProt P52564).
T3 construct: gene MAP2K6

In the next assay the target is T4, NIK (Homo sapiens, UniProt Q99558).
T4 construct: gene MAP3K14

For a further assay, the target named is T5, PFTAIRE2 (Homo sapiens, UniProt Q96Q40).
T5 construct: gene CDK15

A further assay has as its target T6, SGK (Homo sapiens, UniProt O00141).
T6 construct: gene SGK1

The source of these data is PMC7206119, “RIP1 inhibition blocks inflammatory diseases but not tumor growth or metastases” (Cell Death and Differentiation, 2019).

SRMS, sequence (Q9H3Y6 whole entry): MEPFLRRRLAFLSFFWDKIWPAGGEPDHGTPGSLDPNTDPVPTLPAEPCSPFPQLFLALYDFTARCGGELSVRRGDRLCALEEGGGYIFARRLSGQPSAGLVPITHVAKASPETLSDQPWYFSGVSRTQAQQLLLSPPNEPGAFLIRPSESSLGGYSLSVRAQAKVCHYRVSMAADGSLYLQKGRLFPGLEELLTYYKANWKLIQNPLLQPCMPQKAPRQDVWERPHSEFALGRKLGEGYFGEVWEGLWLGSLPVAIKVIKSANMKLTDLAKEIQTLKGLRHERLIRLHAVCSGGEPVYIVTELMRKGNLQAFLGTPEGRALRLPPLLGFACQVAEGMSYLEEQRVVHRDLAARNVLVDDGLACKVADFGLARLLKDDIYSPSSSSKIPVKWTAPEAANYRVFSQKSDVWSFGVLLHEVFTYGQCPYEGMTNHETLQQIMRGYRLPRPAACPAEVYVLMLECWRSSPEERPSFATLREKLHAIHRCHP
FGFR4, sequence (P22455 whole entry): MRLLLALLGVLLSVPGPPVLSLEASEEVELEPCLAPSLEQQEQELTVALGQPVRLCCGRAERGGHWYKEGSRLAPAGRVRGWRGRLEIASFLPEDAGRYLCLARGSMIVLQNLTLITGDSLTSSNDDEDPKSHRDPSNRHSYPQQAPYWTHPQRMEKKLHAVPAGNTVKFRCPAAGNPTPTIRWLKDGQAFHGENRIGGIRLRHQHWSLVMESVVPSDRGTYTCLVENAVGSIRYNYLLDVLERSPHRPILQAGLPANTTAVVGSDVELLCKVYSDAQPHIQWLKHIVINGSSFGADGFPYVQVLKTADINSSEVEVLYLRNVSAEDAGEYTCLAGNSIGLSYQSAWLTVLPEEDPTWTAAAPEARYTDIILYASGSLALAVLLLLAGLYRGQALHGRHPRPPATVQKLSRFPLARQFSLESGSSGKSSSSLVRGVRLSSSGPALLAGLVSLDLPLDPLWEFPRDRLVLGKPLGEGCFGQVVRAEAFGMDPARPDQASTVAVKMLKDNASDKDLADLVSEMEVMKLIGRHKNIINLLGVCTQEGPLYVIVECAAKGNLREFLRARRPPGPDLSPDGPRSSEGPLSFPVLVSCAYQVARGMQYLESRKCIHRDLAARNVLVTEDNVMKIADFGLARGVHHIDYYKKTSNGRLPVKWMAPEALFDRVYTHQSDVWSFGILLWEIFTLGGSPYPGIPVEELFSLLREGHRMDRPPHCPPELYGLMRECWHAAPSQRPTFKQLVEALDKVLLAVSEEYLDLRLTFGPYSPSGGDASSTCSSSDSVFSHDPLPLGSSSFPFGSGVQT
AKT2, sequence (P31751 whole entry): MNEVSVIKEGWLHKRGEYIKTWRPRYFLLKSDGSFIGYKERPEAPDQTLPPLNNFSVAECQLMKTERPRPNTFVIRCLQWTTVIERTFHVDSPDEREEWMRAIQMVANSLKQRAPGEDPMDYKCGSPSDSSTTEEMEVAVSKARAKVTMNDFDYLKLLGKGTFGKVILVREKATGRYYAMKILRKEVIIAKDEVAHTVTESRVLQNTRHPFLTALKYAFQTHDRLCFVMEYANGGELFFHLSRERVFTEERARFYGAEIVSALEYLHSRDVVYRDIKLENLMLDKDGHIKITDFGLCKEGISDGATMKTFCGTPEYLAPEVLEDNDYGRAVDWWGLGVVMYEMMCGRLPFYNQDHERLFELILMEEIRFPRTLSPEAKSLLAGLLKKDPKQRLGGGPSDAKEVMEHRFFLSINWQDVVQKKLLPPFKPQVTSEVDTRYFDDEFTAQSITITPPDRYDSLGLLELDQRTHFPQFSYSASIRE
PIK3CA(H1047L), sequence (P42336 whole entry H1047L): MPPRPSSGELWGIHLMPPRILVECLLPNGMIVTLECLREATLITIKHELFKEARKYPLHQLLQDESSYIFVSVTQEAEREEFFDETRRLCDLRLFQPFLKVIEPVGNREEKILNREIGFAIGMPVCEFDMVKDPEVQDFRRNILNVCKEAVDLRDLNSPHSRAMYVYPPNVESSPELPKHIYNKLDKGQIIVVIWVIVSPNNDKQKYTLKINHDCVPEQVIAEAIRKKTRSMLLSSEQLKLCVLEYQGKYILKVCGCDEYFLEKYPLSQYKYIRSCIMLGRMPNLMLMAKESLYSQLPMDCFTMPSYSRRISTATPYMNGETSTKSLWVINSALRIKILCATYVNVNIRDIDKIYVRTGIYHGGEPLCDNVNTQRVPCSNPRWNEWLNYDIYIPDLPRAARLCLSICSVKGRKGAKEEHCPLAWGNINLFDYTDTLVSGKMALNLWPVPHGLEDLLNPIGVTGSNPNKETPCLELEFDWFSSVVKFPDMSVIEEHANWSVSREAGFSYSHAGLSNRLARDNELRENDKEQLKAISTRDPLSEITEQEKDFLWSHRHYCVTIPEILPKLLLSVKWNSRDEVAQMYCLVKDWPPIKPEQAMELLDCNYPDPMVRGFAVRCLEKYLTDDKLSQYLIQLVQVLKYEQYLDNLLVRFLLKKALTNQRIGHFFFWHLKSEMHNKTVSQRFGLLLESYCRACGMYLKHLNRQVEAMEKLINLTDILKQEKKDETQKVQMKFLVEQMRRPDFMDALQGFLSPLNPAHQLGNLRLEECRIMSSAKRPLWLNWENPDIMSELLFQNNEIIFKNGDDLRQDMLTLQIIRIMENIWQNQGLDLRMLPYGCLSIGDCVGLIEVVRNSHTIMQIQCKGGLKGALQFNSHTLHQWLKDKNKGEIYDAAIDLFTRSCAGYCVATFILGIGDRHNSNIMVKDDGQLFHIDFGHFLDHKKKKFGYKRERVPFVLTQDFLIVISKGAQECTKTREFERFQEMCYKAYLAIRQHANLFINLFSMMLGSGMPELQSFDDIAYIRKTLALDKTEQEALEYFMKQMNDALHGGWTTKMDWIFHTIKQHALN
T3 sequence (P52564 whole entry): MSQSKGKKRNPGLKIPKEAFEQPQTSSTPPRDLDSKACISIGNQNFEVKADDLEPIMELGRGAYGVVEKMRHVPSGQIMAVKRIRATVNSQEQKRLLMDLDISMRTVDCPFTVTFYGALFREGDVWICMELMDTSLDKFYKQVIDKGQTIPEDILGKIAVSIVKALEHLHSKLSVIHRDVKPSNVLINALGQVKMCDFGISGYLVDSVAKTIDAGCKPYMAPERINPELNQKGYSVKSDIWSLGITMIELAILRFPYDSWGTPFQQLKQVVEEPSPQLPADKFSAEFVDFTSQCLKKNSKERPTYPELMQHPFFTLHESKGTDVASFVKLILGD
NEK6, sequence (Q9HC98 whole entry): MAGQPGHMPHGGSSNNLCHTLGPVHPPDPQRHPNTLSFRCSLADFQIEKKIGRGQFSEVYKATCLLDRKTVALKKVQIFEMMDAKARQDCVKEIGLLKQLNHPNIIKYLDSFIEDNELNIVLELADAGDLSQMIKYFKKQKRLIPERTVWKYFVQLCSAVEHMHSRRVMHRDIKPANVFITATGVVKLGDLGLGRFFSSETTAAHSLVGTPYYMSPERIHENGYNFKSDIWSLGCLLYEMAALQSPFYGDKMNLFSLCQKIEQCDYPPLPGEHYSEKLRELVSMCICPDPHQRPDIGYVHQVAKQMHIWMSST
T6 sequence (O00141 whole entry): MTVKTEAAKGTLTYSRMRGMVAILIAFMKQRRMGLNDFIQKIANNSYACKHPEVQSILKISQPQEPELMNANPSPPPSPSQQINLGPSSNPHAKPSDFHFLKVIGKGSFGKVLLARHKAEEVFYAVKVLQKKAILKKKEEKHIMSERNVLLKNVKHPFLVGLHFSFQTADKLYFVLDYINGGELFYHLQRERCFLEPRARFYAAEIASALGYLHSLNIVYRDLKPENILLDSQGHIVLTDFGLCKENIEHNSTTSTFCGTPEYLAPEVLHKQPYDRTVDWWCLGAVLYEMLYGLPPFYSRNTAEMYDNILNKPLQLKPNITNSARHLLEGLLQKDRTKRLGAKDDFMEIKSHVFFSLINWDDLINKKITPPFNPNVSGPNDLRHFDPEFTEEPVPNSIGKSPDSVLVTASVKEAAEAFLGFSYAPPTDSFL
T5 sequence (Q96Q40 whole entry): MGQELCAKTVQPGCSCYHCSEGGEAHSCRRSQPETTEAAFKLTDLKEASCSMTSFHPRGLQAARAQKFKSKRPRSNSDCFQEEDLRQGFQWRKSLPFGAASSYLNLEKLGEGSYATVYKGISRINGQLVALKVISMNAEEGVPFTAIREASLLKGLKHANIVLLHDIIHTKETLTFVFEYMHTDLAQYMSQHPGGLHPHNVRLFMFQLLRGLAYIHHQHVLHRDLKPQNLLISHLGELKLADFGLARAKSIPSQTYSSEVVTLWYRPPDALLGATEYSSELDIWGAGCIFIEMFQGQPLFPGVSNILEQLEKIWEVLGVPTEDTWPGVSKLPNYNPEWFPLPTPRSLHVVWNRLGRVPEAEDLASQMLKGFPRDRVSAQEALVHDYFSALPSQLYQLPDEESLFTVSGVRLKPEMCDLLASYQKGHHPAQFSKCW
PIM1, sequence (P11309 whole entry): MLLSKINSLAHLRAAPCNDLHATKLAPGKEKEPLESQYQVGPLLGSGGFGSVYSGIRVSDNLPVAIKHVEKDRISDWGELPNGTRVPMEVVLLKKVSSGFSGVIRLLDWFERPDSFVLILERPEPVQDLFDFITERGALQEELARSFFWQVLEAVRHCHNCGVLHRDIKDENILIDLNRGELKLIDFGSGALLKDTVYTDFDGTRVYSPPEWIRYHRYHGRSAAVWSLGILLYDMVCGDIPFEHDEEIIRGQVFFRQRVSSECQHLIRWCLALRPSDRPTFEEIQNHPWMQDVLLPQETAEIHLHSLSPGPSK

Regarding `COc1cc2c(cn1)N(C)C(=O)[C@@H](NC(=O)c1nc3n(n1)[C@H](c1ccccc1)CC3)CC2` [GNE684, (S)-N-((S)-7-methoxy-1-methyl-2-oxo-2,3,4,5-tetrahydro-1H-pyrido[3,4-b]azepin-3-yl)-5-phenyl-6,7-dihydro-5H-pyrrolo[1,2-b][1,2,4]triazole-2-carboxamide], the remaining binding at 10 µM in assay [1] came out at 100%; on AKT2, 92%; at BMPR1A, 91%; on CDK3, 74%; on FGFR4 it was 88%; on FLT3(R834Q), 100%. For the same molecule, the remaining binding at 10 µM in assay [2] was found to be 97%; on MEK6, 100%; on MELK, 93%; at NEK6, 85%; at NIK, 100%; on PFTAIRE2 it was 100%. The remaining binding at 10 µM turned out to be 95% at PIK3CA(H1047L); 100% at PIM1; 100% on PIM3; 86% at PRKCD; 99% at PRKX; 0% on RIPK1. The remaining binding at 10 µM on SGK is 100%; on SRMS, 100%; on TYRO3, 97%.
